The subject of one data set is 2008/C13*5 cells. Briefly: Colonogenic assay, effect of TPA on DDP sensitivity of DDP-resistant cells. The class given is cell-based, human. The settings on record: TPA and DDP concurrently for 1 h. From the text:
The following cell lines were used in these studies: 2008 human ovarian carcinoma (Disaia, et al., Am. J. Obstet. Gynecol. 114:978 (1972)), COLO 316 human ovarian carcinoma (Woods et al., Cancer Res. 39:4449 (1979)), a DDP resistant variant 2008/C13*, derived from the parent 2008 cell line (Andrews, et al., Cancer Res. 45:6250 (1985)), A549 non-small cell lung cancer (Lieber et al., Int. J. Cancer 17:62 (1976)), NCI-H520 squamous cell lung cancer (Brower et al., Cancer Res. 46: 798 (1986)), NCI-H596 adenosquamous lung cancer (Banks-Schlegel et al., Cancer Res. 45: 1187 (1985)), UMC 31 small cell lung cancer cells (Graziano et al., Genes, Chromosomes and Cancer 3: 283 (1991)), GLC4 small cell lung cancer cells (Zijlstra et al., Cancer Res. 47: 1780 (1987)), UMCC10b head and neck cancer cells (Krause et al., Arch. Otolayngol. 107: 703 (1981)), 5637 bladder cancer cells (Fogh et al., J. Natl. Cancer Inst. 58: 209 (1977)), MIA PaCa-2 pancreatic cancer cells (Yunis et al., Int. […]
Colony forming assays were used to assess the effect of each drug on the sensitivity of various tumor cell lines to cytotoxic agents (Andrews, et al., Chem.-Biol. Interact 65:51-58 (1988)). […] Colonies of over 60 cells were counted macroscopically.
The 2008/C13*5 cell line is 8-10-fold resistant to DDP. […] Drug cytotoxicity was determined by colonogenic assay on plastic dishes. […]

Data set [1] concerns 2008 cells. The experiment in a line: Cellular accumulation of [195mPt]DDP. It counts as cell-based, human. The settings on record: concurrent 60 min. The procedure:
Cell-associated ^195m Pt was determined by as a measure of DDP accumulation. For DDP accumulation studies, subconfluent monolayers were treated with 37° C. RPMI 1640 medium containing 20 μM [^195m Pt]-DDD. The dishes were immediately returned to the incubater. After 1 h incubation, the medium was aspirated, the cells were washed rapidly with 4° C. PBS 4 times. Two ml of 1N NaOH was added and the cells allowed to digest overnight. A forty μl aliquot was used for determination of protein content by the method of Bradford (Bradford, Anal. Biochem. 72:248-254 (1976)), and the remaining […] was counted in glass tubes on a Trak 1191 gamma counter (Tracer Analytic, EIK Grove Village, Ill.). Columns represent the mean values of 3 experiments performed with duplicate cultures. The bars represent the standard deviation.
Cultured 2008 cells were treated concurrently with [^195m Pt]DDP and TPA for 60 min. A vehicle control consisting of an appropriate dilution of acetone was run concurrently. […] Cells treated with medium alone contained 140±13 pmol/mg of protein, whereas those treated with the acetone control contained 141±7 pmol/mg of protein, and those treated with TPA contained 143±21 pmol/mg of protein.

The subject of a further data set is cellular cAMP. The experiment in a line: Determination of cellular cAMP content. It counts as cell-based.
Data set [2] is described as follows: Colony formation, TPA sensitization to DDP with cycloheximide (CHM). It counts as cell-based. The note with it: 2 μM DDP with 10^-7 M TPA 1 h.
A further data set deals with human KB carcinoma cells. The settings on record: TPA treatment; cited from earlier work.
The test system of data set [3] is 2008 cells. Briefly: Colony forming (colonogenic) assay, effect of TPA, phorbol and staurosporine on DDP sensitivity.

Results on one molecule are retold here after patent US5597798A, “Taxol and epidermal growth factor used to enhance treatment of ovarian cancer” (The Regents of the University of California, priority 1994, dated 1997).

`CCCCCCCCCCCCCC(=O)O[C@@H]1[C@@H](C)[C@@]2(O)[C@@H](C=C(CO)C[C@]3(O)C(=O)C(C)=C[C@@H]23)[C@H]2C(C)(C)[C@]12OC(C)=O` [TPA]: the “sensitization to DDP” value in the data set with 2008/C13*5 cells came to 2.6 fold. For the same molecule, in the data set with 2008 cells [1], the “effect of TPA on cellular accumulation of [195mPt]DDP” value was “neither the acetone nor the TPA produced any effect on cellular accumulation”. Further, the “cAMP level, 10 min. mean” value in the data set with cellular cAMP (10 min treatment, means of 6 experiments) is 2.7 pmol/mg protein. In the data set with cellular cAMP (60 min), the “cAMP level, % of the untreated control” value is listed as 38% and the “cAMP level, % of the vehicle control” value came out at 65%. Moreover, the “cAMP level, 60 min. mean” value in the data set with cellular cAMP (60 min treatment, means of 6 experiments) was determined as 8.2 pmol/mg protein. Also, the “survival, % of control (S.D.)” value in data set [2] (absence of CHM) is 33±5%. For the same molecule, the “survival, % of controls (S.D.)” value in data set [2] (presence of CHM 5 μg/ml) was 41±7%. Besides, the “decrease in sensitivity to etoposide and vincristine” value in the data set with human KB carcinoma cells is 50%. For the same molecule, the “interaction between TPA and DDP, median effect analysis” value in the data set on 2008 cells [3] was “truly synergistic”. Moreover, the “loss of TPA sensitization” value in the data set on 2008 cells [3] (0.1 μM TPA 1 h, 2 μM DDP 1 h) is on record as “largely disappeared by 7 h”. Also, in the data set on 2008 cells [3] (2 μM DDP plus 0.1 μM TPA), the “survival, % of control” value came out at 38±16%. The “survival normalized to 2 μM DDP alone = 100%” value in the data set with 2008 cells [3] (2 μM DDP plus TPA, no staurosporine) came to 44%. In the data set on 2008 cells [3] (24-h exposure to 0.1 μM TPA followed by 1-h exposure to DDP), the “DDP sensitization after TPA pretreatment” value was “a similar degree of sensitization was observed”. For the same molecule, the “increase in DDP sensitivity” value in the data set on 2008 cells [3] (TPA and DDP concurrently for 1 h) was found to be 2.5 fold. Further, in the data set with 2008 cells [3] (concentrations), the “toxicity of TPA by itself” value was “did not cause any toxicity by itself”. Moreover, the “DDP sensitization under continuous exposure” value in the data set with 2008 cells [3] (continuous exposure to both TPA and DDP for the full period of colony formation) was “no change in DDP sensitivity was evident”.
